What was measured:
[1] = tested on: BMSC (primary human bone marrow mesenchymal stromal cells); assay: drug sensitivity score (DSS); higher = more sensitive
[2] = tested on: BMSC (primary human bone marrow mesenchymal stromal cells); assay: absolute EC50 for viability; higher = less sensitive

SMILES	drug sensitivity score [1]	absolute EC50 for viability [2]
Cc1c(N)nc([C@H](CC(N)=O)NC[C@H](N)C(N)=O)nc1C(=O)N[C@H](C(=O)N[C@H](C)[C@@H](O)[C@H](C)C(=O)N[C@H](C(=O)NCCc1nc(-c2nc(C(=O)NCCC[S+](C)C)cs2)cs1)[C@@H](C)O)[C@@H](OC1OC(CO)C(O)C(O)C1OC1OC(CO)C(O)C(OC(N)=O)C1O)c1cnc[nH]1 (stereo partly specified) [Bleomycin]	2.5	> 10 µM
CCN(CC)Cc1ccc2cc(COC(=O)Nc3ccc(C(=O)NO)cc3)ccc2c1 [Givinostat]	3.6	> 1 µM
O=C(c1ccc(F)c(F)c1Nc1ccc(I)cc1F)N1CC(O)([C@@H]2CCCCN2)C1 [Cobimetinib]	4.3	> 1 µM
Cc1cc(Nc2cc(CN3CCOCC3)c3nc(C)c(Cc4ccc(Cl)cc4F)n3n2)n[nH]1 [Gandotinib]	6.3	2.49 µM
COc1cc2c(cc1OC(C)C)[C@H](c1ccc(Cl)cc1)N(c1ccc(N(C)C[C@H]3CC[C@H](N4CCN(C)C(=O)C4)CC3)cc1)C(=O)C2 [NVP-CGM097]	9.2	4.61 µM
CC(C)Nc1cc(-c2c[nH]c(C(=O)N[C@H](CO)c3cccc(Cl)c3)c2)c(Cl)cn1 [Ulixertinib]	2.4	> 10 µM
O=C(NOCCO)c1ccc2cncn2c1Nc1ccc(I)cc1F [GDC-0623]	0	> 2.5 µM
COc1cc(C)[nH]c(=O)c1CNC(=O)c1c(C)n([C@H](C)C2CCOCC2)c2ccccc12 [CPI-360]	0	> 10 µM
CCOCc1nc2c(N)nc3ccccc3c2n1CC(C)(C)O [Resiquimod]	0	> 10 µM
O=C1CN2Cc3c(ccc(Cl)c3Cl)N=C2N1 [Anagrelide]	0	> 10 µM
Clc1ccc(Nc2nnc(Cc3ccncc3)c3ccccc23)cc1 [Vatalanib]	0	> 10 µM
O=C(Nc1ccc2[nH]nc(-c3ccncc3)c2c1)[C@@H]1CCN(CC(=O)N2CCN(c3ccc(-c4ncccn4)cc3)CC2)C1	4	> 10 µM
CO[C@@H](C(=O)N1Cc2[nH]nc(NC(=O)c3ccc(N4CCN(C)CC4)cc3)c2C1)c1ccccc1 [Danusertib]	3.6	> 10 µM
CCOC(=O)CCNc1cc(N2CCc3ccccc3CC2)nc(-c2ccccn2)n1 [GSK-J4]	2.8	73 µM
C[C@H]1C[C@@H](n2c(Nc3ccc(OC(F)(F)F)cc3)nc3cc(CCC(=O)O)ccc32)CC(C)(C)C1	0	> 10 µM
CC(C)C[C@H](NC(=O)[C@@H](COC(C)(C)C)NC(=O)[C@H](Cc1ccc(O)cc1)NC(=O)[C@H](CO)NC(=O)[C@H](Cc1c[nH]c2ccccc12)NC(=O)[C@H](Cc1cnc[nH]1)NC(=O)[C@@H]1CCC(=O)N1)C(=O)N[C@@H](CCCNC(=N)N)C(=O)N1CCC[C@H]1C(=O)NNC(N)=O [Goserelin]	0	> 10 µM
Cn1cc(C2=C(c3cn(C4CCN(Cc5ccccn5)CC4)c4ccccc34)C(=O)NC2=O)c2ccccc21 [Enzastaurin]	0	> 10 µM
CC(C)N(C[C@H]1O[C@@H](n2cnc3c(N)ncnc32)[C@H](O)[C@@H]1O)[C@H]1C[C@@H](CCc2nc3cc(C(C)(C)C)ccc3[nH]2)C1 [Pinometostat]	0	> 1 µM
CC(C)(C)c1nc(-c2cccc(NS(=O)(=O)c3c(F)cccc3F)c2F)c(-c2ccnc(N)n2)s1 [Dabrafenib]	0	> 2.5 µM
CC[C@@]1(O)C(=O)OCc2c1cc1n(c2=O)Cc2cc3c(CN(C)C)c(O)ccc3nc2-1 [Topotecan]	4.4	> 10 µM
NC(=S)N/N=C/c1ncccc1N [Triapine]	0	> 10 µM
NS(=O)(=O)NCCNc1nonc1/C(=N/O)Nc1ccc(F)c(Br)c1 [Epacadostat]	0	> 10 µM
O=C(Nc1c[nH]nc1-c1nc2ccc(CN3CCOCC3)cc2[nH]1)NC1CC1 [AT9283]	6	0.254 µM
NC[C@@](O)(c1ccc(Cl)cc1)c1ccc(-c2cn[nH]c2)cc1	3.3	> 10 µM
CC(C)NC(=O)COc1cccc(-c2nc(Nc3ccc4[nH]ncc4c3)c3ccccc3n2)c1 [KD025]	0	> 5 µM
CCC1=C[C@@H]2CN(C1)Cc1c([nH]c3ccccc13)[C@@](C(=O)OC)(c1cc3c(cc1OC)N(C)[C@H]1[C@@](O)(C(=O)OC)[C@H](OC(C)=O)[C@]4(CC)C=CCN5CC[C@]31[C@@H]54)C2 [Vinorelbine]	16.5	1.12 µM
C[C@H]1CNCCCN1S(=O)(=O)c1cccc2cncc(F)c12 [Ripasudil]	1.1	> 10 µM

SMILES	drug sensitivity score [1]	absolute EC50 for viability [2]
Nc1ncn([C@@H]2O[C@H](CO)[C@@H](O)[C@H]2O)c(=O)n1 [Azacitidine]	2.3	> 10 µM
C[C@@H](Oc1cc(-c2cnn(C3CCNCC3)c2)cnc1N)c1c(Cl)ccc(F)c1Cl [Crizotinib]	0.2	> 1 µM
C[C@@H](Oc1cc(-n2cnc3ccc(CN4CCN(C)CC4)cc32)sc1C(N)=O)c1ccccc1C(F)(F)F	8	1.89 µM
Cn1ncnc1[C@H]1c2n[nH]c(=O)c3cc(F)cc(c23)N[C@@H]1c1ccc(F)cc1 [Talazoparib]	1	> 1 µM
O=C(O)CNC(=O)c1c(O)c2ccccc2n(Cc2ccccc2)c1=O [IOX-2]	1.9	> 50 µM
CC1(C)NC(=O)N(c2ccc([N+](=O)[O-])c(C(F)(F)F)c2)C1=O [Nilutamide]	0	> 10 µM
CC(=O)O[C@H]1C(=O)[C@@]2(C)[C@H]([C@H](OC(=O)c3ccccc3)[C@]3(O)C[C@H](OC(=O)[C@H](O)[C@@H](NC(=O)c4ccccc4)c4ccccc4)C(C)=C1C3(C)C)[C@]1(OC(C)=O)CO[C@@H]1C[C@@H]2O [Paclitaxel]	2.7	> 1 µM
C[C@@H]1CN(CC(=O)Nc2ccc3c(c2)Cc2cccc(-c4cc(=O)cc(N5CCOCC5)o4)c2S3)C[C@H](C)O1	0.6	> 25 µM
C[C@H](Nc1ncnc2nc[nH]c12)c1cc2cccc(Cl)c2c(=O)n1-c1ccccc1 [Duvelisib]	0.6	> 0.5 µM
S=C(NCc1ccc2c(c1)OCO2)N1CCN(c2ncnc3c2oc2ccccc23)CC1 [Amuvatinib]	0	> 10 µM
CCCCCCCCCCCCCCCCOP(=O)([O-])OCC[N+](C)(C)C [Miltefosine]	2.7	78.2 µM
CC[C@@H]1CN(C(=O)NCC(F)(F)F)C[C@@H]1c1cnc2cnc3[nH]ccc3n12 [Upadacitinib]	1.1	> 10 µM
CCC(C)n1ncn(-c2ccc(N3CCN(c4ccc(OCC5COC(Cn6cncn6)(c6ccc(Cl)cc6Cl)O5)cc4)CC3)cc2)c1=O (stereo unspecified) [Itraconazole]	1.3	> 5 µM
CC(C)(C)Cn1c(N)nc2ccc(-c3[nH]c(C(C)(C)C)nc3-c3ccc(F)cc3)nc21 [Ralimetinib]	0.7	> 10 µM
CC(C)C[C@H](NC(=O)[C@H](CCc1ccccc1)NC(=O)CN1CCOCC1)C(=O)N[C@@H](Cc1ccccc1)C(=O)N[C@@H](CC(C)C)C(=O)[C@@]1(C)CO1 [Carfilzomib]	19.7	0.0187 µM
CO[C@H]1C[C@@H]2CC[C@@H](C)[C@@](O)(O2)C(=O)C(=O)N2CCCC[C@H]2C(=O)O[C@H]([C@H](C)C[C@@H]2CC[C@@H](OP(C)(C)=O)[C@H](OC)C2)CC(=O)[C@H](C)/C=C(\C)[C@@H](O)[C@@H](OC)C(=O)[C@H](C)C[C@H](C)/C=C/C=C/C=C/1C [Ridaforolimus]	7.6	> 0.1 µM
CCS(=O)(=O)c1cccc(-c2cc(C(=O)NC3CCN(C)CC3)c(C)c3[nH]c4ncc(C)cc4c23)c1 [TAK-901]	5.9	0.265 µM
O=C(O)CC1CC(c2ccccc2)=NO1 (stereo unspecified) [VGX-1027]	-0.1	> 10 µM
CNC(=O)c1ccc(N2C(=S)N(c3ccc(C#N)c(C(F)(F)F)c3)C(=O)C2(C)C)cc1F [Enzalutamide]	0	> 10 µM
O=C1CCc2c(Oc3ccc4c(c3)[C@@H]3[C@H](O4)[C@H]3c3nc4cc(C(F)(F)F)ccc4[nH]3)ccnc2N1 [BGB-283]	4.2	> 10 µM
Nc1cccc2c1CN(C1CCC(=O)NC1=O)C2=O (stereo unspecified) [Lenalidomide]	0	> 100 µM
C/C(=C\c1csc(C)n1)[C@@H]1C[C@@H]2O[C@]2(C)CCC[C@H](C)[C@H](O)[C@@H](C)C(=O)C(C)(C)[C@@H](O)CC(=O)N1 [Ixabepilone]	0.5	> 1 µM
Cc1cc2c(F)c(Oc3ncnn4cc(OC[C@@H](C)O)c(C)c34)ccc2[nH]1 [Brivanib]	0	> 1 µM
Cc1nc(Nc2ncc(C(=O)Nc3c(C)cccc3Cl)s2)cc(N2CCN(CCO)CC2)n1 [Dasatinib]	9.2	0.132 µM
CC1=C2C[C@H]3[C@@H](CC[C@@H]4C[C@H](NS(C)(=O)=O)CC[C@@]43C)[C@@H]2CC[C@@]2(C1)O[C@@H]1C[C@H](C)CN[C@H]1[C@H]2C [Saridegib]	0	> 10 µM
CN(C)C(=O)c1cc2cnc(Nc3ccc(N4CCNCC4)cn3)nc2n1C1CCCC1 [Ribociclib]	2.2	> 10 µM
